Tests used:
[1] = cited from earlier work
[2] = tested on: K562 human tumor cells; assay: Incidence and metastasis of human K562 tumors in SCID mice reconstituted with human PBMC; type: in vivo
Protocol: The purpose of the present experiments was to determine whether d-FEN can enhance the ability of the human immune system to kill a human tumor cell line, vis. K562 human chronic myelogenous leukemia cells. Toward this end d-FEN and vehicle (VEH) treated young male severe combined immunodeficient (SCID) beige mice, reconstituted 4 days previously with human peripheral blood mononuclear cells (PBMC) obtained from two human volunteers, were injected with K562 cells and tumor size and number measured 13-18 days later.
SCID mice (n=36) were obtained from Harlan Sprague-Dawley Inc. (Indianapolis, Ind.). This inbred strain of mice are devoid of T, B, and natural killer (NK) cells. The animals were housed 3/cage in an AAALAC approved facility with a 12 h light-dark cycle (lights on at 07:00 h). The temperature and humidity of the facility were maintained between 72-75° F. and 52-55% respectively. Food (Purina mouse chow) and water were available ad libitum.
Protocol. The animals were divided into groups of 6 and subjected to the following treatment for each of the 2 human donors tested:
The mice treated with d-FEN (10 mg/kg/day, p.o.) received the drug daily in their drinking water beginning 10 days prior to inoculation with human PBMC. On the day of PBMC injection (3×10^7 human PBMC/mouse, i.p.) the dose of d-FEN was reduced to […]. The average daily water intakes and body weights of the mice were 6 ml and 20 g, respectively. Therefore, a dose of 6 mg/kg equaled 2 mg of d-FEN per 100 ml of water. Four days after reconstitution with human PBMC, 1×10^7 K562 human tumor cells/mouse were injected i.p. The animals were sacrificed between 11:00 and 13:00 h 13-18 days after K562 cell injection (17-22 and 27-32 days, respectively, after transfection with human PBMC and the start of d-FEN treatment). The animals were thoroughly necropsied and tumor sites counted, excised, weighed and fixed for histological analysis.
For reconstitution of SCID mice with human PBMC, 500 ml of venous blood was drawn into sterile plastic pouches containing preservative free heparin. Blood was drawn by Apheresis Lab nurses at LUMC (Loyola University Medical Center) and was diluted with an equal volume of HBSS. The diluted blood (20 ml) was layered over 10 ml of Histopaque 1077 (Sigma Chemical Company, St. Louis, Mo.) and centrifuged at 1000×g for 30 min. After centrifugation, the mononuclear cell layer was recovered from the interface and washed twice in HBSS. After microscopic enumeration, the PBMC were resuspended in HBSS at a concentration of 1×10^8 cells/ml, and 0.3 ml (3×10^7 cells) of the cell suspension was injected (i.p.) into each SCID mouse.
The K562 cell line originated from a chronic myelogenous leukemia patient and was obtained from Dr. T. Ellis (Director, Cellular Immunology Laboratory, LUMC). The K562 cells used for assessment of cytotoxic activity were maintained in long term cultures using Corning 25 cm^2 tissue culture flasks (Corning Glass Works, Corning, N.Y.) containing RPMI 1640 (Gibco Laboratories, Grand Island, N.Y.) supplemented with low LPS 10% fetal bovine serum (FBS; Gibco), 100 units/ml penicillin, 100 μg/ml streptomycin (Whittaker M. A. Bioproducts, Walkersville, Md.), 0.1 mM non-essential amino acids, and 2 mM L-glutamine (Gibco). This medium was used throughout, except where noted, and is referred to as "culture medium". The K562 cells were grown in suspension and were passaged three times per week by transfer of 10^6 K562 cells into a flask containing 10 ml of fresh culture medium. The K562 cells injected into the SCID mice were supplemented with fresh medium at a 1:3 dilution the day before administration. They were washed once in medium, pelleted by centrifugation at 500 ×g for 10 min., then resuspended at a concentration of 5×10^7. Subsequently, 0.2 ml (1×10^7 cells) of the cell suspension was injected (i.p.) into each SCID mouse. The K562 cells were administered to the animals four days after the injection of PBMC.

[3] = tested on: TNF-α in CD8+ T cells; assay: TNF-α production by CD8+ T cells, flow cytometry; type: cell-based, human; details: 50 ng/ml; for % Positive Cells (TNF-α immunopositive), d-FEN / TNF-α Titer, d-FEN: Mean ± SEM
Excerpt: (§1) The T lymphocytes analyzed were obtained from 20 HIV+ patients (9 females and 11 males, 25-48 years of age). The patients were diagnosed as being HIV+ within the past 0.5-9 years, and 15 are being treated with antiviral drugs. The subjects' study identification number (indicates the order in which bloods were drawn), CD4+ and CD8+ counts (determined March, 1996, as part of the present study), age, sex, date of diagnosis, and pharmacotherapy are provided in Table 1.
(§2) The experimental protocol for this project is illustrated in Table A. Note that the cultures were exposed to two doses (5 and 50 ng/ml) of d-FEN in the mitogenesis assays, whereas only one dose (50 ng/ml) was used in the antifungal and cytokine release assays.
(§3) Cytokine Profiles. Peripheral mononuclear cells were isolated by the Ficoll-Hypaque method and washed twice with RPMI-1640 medium. Cell suspensions were made at 1×10^6 /ml and the cells activated with interleukin-2 (IL-2) for 18 h or 4 days at 37° C. under 5% CO^2 +95% air. Monensin (1 nM) then was added to the culture to block secretion of cytokines, and the cultures allowed to continue for another 3 h. The cells were washed twice with PBS+1% fetal calf serum (FCS) with 0.1% saponin+0.1% sodium azide, then washed once with PBS-1% FCS and stained with anti-cytokine MAb-FL conjugate for 30 min. Following two washes, the cells were analyzed by flow cytometry for production of IL-2, IFN-γ and TNF-α. The MAbs-FL conjugates were obtained from Pharmingen (San Diego, Calif.). Potential effects of on cytokine production were evaluated (a) as increases in the percentage of a T cell subset which produce the respective cytokine; and, (b) as increases in the amount of cytokine produced by each subset. The latter were analyzed as a shift of the cytokine histograms.
(§4) The data were analyzed by a one- or two-way analysis of variance (ANOVA) with repeated measures where appropriate ([…] version 1; Jandel, San Rafael, Calif.). Significant main effects were subjected to post hoc analysis using the Student-Newman Keuls All Pairwise Multiple Comparisons test or the Mann-Whitney U test.

[4] = tested on: INF-γ in CD8+ T cells; assay: INF-γ production by CD8+ T cells, flow cytometry; type: cell-based, human; details: 50 ng/ml, Mean ± SEM
Excerpt: as §1, §2, §3, §4

[5] = K562 + PBMC + d-FEN (10 then 6 mg/kg/day p.o.)
[6] = K562 + PBMC + d-FEN (10 then 6 mg/kg/day p.o.), p = 0.05

## CCN[C@@H](C)Cc1cccc(C(F)(F)F)c1 [d-FEN]
[1]; 5 mg dextrofenfluramine per os
  level in tissue and in plasma: about 5 ng/ml
[1]; upon administration, in vivo
  conversion to metabolite dextronorfenfluramine: partially converts upon administration to its metabolite dextronorfenfluramine
[2]; [5]
  Number of Mice Showing Multiple Tumor Sites: 1/12
  Percent of Mice Showing Multiple Tumor Sites / tumor metastasis: 8%
[2]; [6]
  Number of Mice Having Tumors: 5/12
  Percent of Mice Having Tumors: 42%
[2]; K562 + PBMC + d-FEN (10 then 6 mg/kg/day p.o., drinking water)
  Body Weight: 17.5 ± 2.1 g
[2]; d-FEN treated SCID mice, p=0.05
  incidence of histopathologically confirmed lymphomas in words: significantly (p=0.05) reduced incidence
[2]; d-FEN treated vs control SCID mice
  body weights and water intakes in words: did not differ from those of the control animals
[2]; d-FEN treated vs other two groups, p=0.6
  tumor metastasis in words: did not reach significance
[2]; doses used during the studies
  anorexigenic action and weight loss: No effect of this type was observed
[2]; one of the d-FEN treated mice, with metastasis
  largest tumor: 0.833 g
[3]
  effect on TNF-α titer in words: No significant effects on TNF-α titer were observed
[3]; AIDS
  % Positive Cells (TNF-α immunopositive), d-FEN: 62 ± 4%
  TNF-α Titer, d-FEN: 329 ± 57 geometric mean channel fluorescence
[3]; non-AIDS HIV+
  % Positive Cells (TNF-α immunopositive), d-FEN: 69 ± 3%
  TNF-α Titer, d-FEN: 392 ± 47 geometric mean channel fluorescence
[3]; Homo sapiens, T-cell, AIDS, read-out: percent increase of TNF-α+ cells over VEH
  activation at 0.05 µg/mL: 24%
[4]; AIDS
  % Positive Cells (INF-γ immunopositive), d-FEN: 40 ± 5%
  INF-γ Titer, d-FEN: 764 ± 86 geometric mean channel fluorescence
[4]; non-AIDS HIV+
  % Positive Cells (INF-γ immunopositive), d-FEN: 47 ± 4%
  INF-γ Titer, d-FEN: 964 ± 71 geometric mean channel fluorescence

Reference: patent US5955508A, “Method for the enhancement of lymphocyte activity against opportunistic microbial pathogens” (priority 1996, dated 1999)
